This is an account of results in patent US8377935B2, “Substituted aminopropenyl piperidine or morpholine derivatives as novel inhibitors of histone deacetylase” (Janssen Pharmaceutica N.V., priority 2005, dated 2013).

For orientation: melting point means the temperature of the solid-liquid transition. For orientation: solubility means the dissolved amount per volume that the medium holds.

Test in series [1]: not given
The source holds these as a separate data set.

Series [2] deals with A2780 ovarian carcinoma cells. The experiment in a line: Determination of antiproliferative activity on A2780 cells (MTT). Format: cell-based. As to conditions: Homo sapiens, 96 h, four days of incubation, read-out: Cellular activity pIC50 (converted). As for the experimental part: Cellular activity of the compounds of formula (I) was determined on A2780 tumour cells using a colorimetric assay for cell toxicity or survival (Mosmann Tim, Journal of Immunological Methods 65:55-63, 1983)(see example C.2).
All compounds tested were dissolved in DMSO and further dilutions were made in culture medium. Final DMSO concentrations never exceeded 0.1% (v/v) in cell proliferation assays. Controls contained A2780 cells and DMSO without compound and blanks contained DMSO but no cells. MTT was dissolved at 5 mg/ml in PBS. A glycine buffer comprised of 0.1 M glycine and 0.1 M NaCl buffered to pH 10.5 with NaOH (1 N) was prepared (all reagents were from Merck).
The human A2780 ovarian carcinoma cells (a kind gift from Dr. T. C. Hamilton [Fox Chase Cancer Centre, Pennsylvania, USA]) were cultured in RPMI 1640 medium supplemented with 2 mM L-glutamine, 50 μg/ml gentamicin and 10% fetal calf serum. Cells were routinely kept as monolayer cultures at 37° C. in a humidified 5% CO2 atmosphere. Cells were passaged once a week using a trypsin/EDTA solution at a split ratio of 1:40. All media and supplements were obtained from Life Technologies. Cells were free of mycoplasma contamination as determined using the Gen-Probe Mycoplasma Tissue Culture kit (supplier: BioMerieux).
Cells were seeded in NUNC™ 96-well culture plates (Supplier: Life Technologies) and allowed to adhere to the plastic overnight. Densities used for plating were 1500 cells per well in a total volume of 200 μl medium. After cell adhesion to the plates, medium was changed and drugs and/or solvents were added to a final volume of 200 μl. Following four days of incubation, medium was replaced by 200 μl fresh medium and cell density and viability was assessed using an MTT-based assay. To each well, 25 μl MTT solution was added and the cells were further incubated for 2 hours at 37° C. The medium was then carefully aspirated and the blue MTT-formazan product was solubilized by addition of 25 μl glycine buffer followed by 100 μl of DMSO. […] Within an experiment, the results for each experimental condition are the mean of 3 replicate wells. For initial screening purposes, compounds were tested at a single fixed concentration of 10^−6 M. For active compounds, the experiments were repeated to establish full concentration-response curves. For each experiment, controls (containing no drug) and a blank incubation (containing no cells or drugs) were run in parallel. The blank value was subtracted from all control and sample values. For each sample, the mean value for cell growth (in absorbance units) was expressed as a percentage of the mean value for cell growth of the control. […] Herein the effects of test compounds are expressed as pIC50 (the negative log value of the IC50-value)(see Table F-3).

A short description of series [3]: Solubility/stability (chemiluminescent nitrogen detector). Format: physicochemical. As to conditions: water. An excerpt:
The solubility of a compound measures the ability of a compound to stay in solution. The solubility of a compound at different pH's can be measured with the use of a chemiluminescent nitrogen detector (see example C.3).
The solubility of a compound, at different pH's, can be measured with the use of a chemiluminescent nitrogen detector.

The target of series [4] is histone deacetylase (HeLa nuclear extracts). The experiment in a line: In vitro assay for inhibition of histone deacetylase (HDAC Fluorescent Activity Assay, Fluor de Lys). As to conditions: HeLa nuclear extracts 60 μg/ml, 75 μM Fluor de Lys substrate. It is filed as biochemical. From the text: The in vitro assay for inhibition of histone deacetylase (see example C.1) measures the inhibition of HDAC enzymatic activity obtained with the compounds of formula (I).
The HDAC Fluorescent Activity Assay/Drug Discovery Kit of Biomol (cat.No: AK-500-0001) was used. The HDAC Fluorescent Activity Assay is based on the Fluor de Lys (Fluorogenic Histone deAcetylase Lysyl) substrate and developer combination. The Fluor de Lys substrate, comprises an acetylated lysine side chain. Deacetylation of the substrate sensitizes the substrate so that, in the second step, treatment with the Fluor de Lys developer produces a fluorophore.
HeLa nuclear extracts (supplier: Biomol) were incubated at 60 μg/ml with 75 μM of substrate. The Fluor de Lys substrate was added in a buffer containing 25 mM Tris, 137 mM. NaCl, 2.7 mM KCl and 1 mM MgCl2.6H2O at pH 7.4. After 30 min, 1 volume of the developer was added. The fluorophore was excited with 355 nm light and the emitted light (450 nm) was be detected on a fluorometric plate reader.
For each experiment, controls (containing HeLa nuclear extract and buffer), a blank incubation (containing buffer but no HeLa nuclear extract) and samples (containing compound dissolved in DMSO and further diluted in buffer and HeLa nuclear extract) were run in parallel. In first instance, compounds were tested at a concentration of 10^−5M. […] All sample were tested 4 times. In each test the blank value was substracted from both the control and the sample values. The control sample represented 100% of substrate deactylation. For each sample the fluorescence was expressed as a percentage of the mean value of the controls. […] Herein the effects of test compounds are expressed as pIC50 (the negative log value of the IC50-value) (see Table F-3).

The nature of series [5]: Metabolic stability with rat hepatocytes cell culture. As to conditions: rat hepatocyte cell cultures, 5 μM. Format: in vitro ADME. From the text: Metabolism of drugs means that a lipid-soluble xenobiotic or endobiotic compound is enzymatically transformed into (a) polar, water-soluble, and excretable metabolite(s). The major organ for drug metabolism is the liver. […] However, some metabolites may have enhanced activity or toxic effects. Thus drug metabolism may include both “detoxication” and “toxication” processes. One of the major enzyme systems that determine the organism's capability of dealing with drugs and chemicals is represented by the cytochrome P450 monooxygenases, which are NADPH dependent enzymes. Metabolic stability of compounds can be determined in vitro with the use of subcellular human tissue (see example C.5.a.). Here metabolic stability of the compounds is expressed as % of drug metabolised after 15 minutes incubation of these compounds with microsomes. Quantitation of the compounds was determined by LC-MS analysis. Metabolic stability of compounds can also be determined by calculating the half live of compounds in rat hepatocyte cells (see example C.5.b.). […]
Samples were prepared for LC-MS by addition of two volumes of DMSO. […] Of the resulting supernatant 50 μl was analysed by LC-MS. […]
Total injection volume of samples was 50 μL. […] The mass spectrometer was operated in positive ion mode in SIM adjusted to the mass of […] with a scan width of 1 Da for quantification purposes. […]

Read-outs that look alike come from different tables or passages of the source.

As for `O=C(NO)c1cnc(N2CCC(CNC(/C=C/c3ccccc3)CO)CC2)nc1` (stereo not shown) (hydrate or solvate) [Compound 1], the melting point came out at 196 °C.

The compound `O=C(NO)c1cnc(N2CCC(NC(/C=C/c3ccccc3)CO)CC2)nc1` (stereo not shown) (hydrate or solvate) [Compound 2] had a melting point of 109 °C.

For `COc1cc(N)c(Cl)cc1C(=O)NC1CCN(CCCOc2ccc(F)cc2)CC1OC` (stereo not shown) [Cisapride], in series [1] (human, 15 min, 5 μM), the “% metabolism” value worked out at 45%.

`O=C(NO)c1cnc(N2CCC(NC(/C=C/c3ccccc3)CO)CC2)nc1` (stereo not shown) [Compound 2]: the IC50 in series [2] is 158 nM. Also, the solubility in series [3] is above 500 µg/mL. The “Enzyme activity pIC50” value in series [4] is recorded as 8.0.

In turn, `CC(/C=C/c1ccccc1)NCC1CCN(c2ncc(C(=O)NO)cn2)CC1` (stereo not shown) [Compound 3] returned a melting point of 155 °C. For the same compound, in series [2], the IC50 was 50.1 nM. The solubility in series [3] is above 1000 µg/mL. Also, in series [4], the “Enzyme activity pIC50” value was 8.3.

The compound `CC(=O)N(CC1CCN(c2ncc(C(=O)NO)cn2)CC1)C(C)/C=C/c1ccccc1` (stereo not shown) [Compound 4] yielded a melting point of 100 °C. Also, in series [2], the IC50 was 158 nM. In addition, the solubility in series [3] was above 100 µg/mL. The “Enzyme activity pIC50” value in series [4] is 8.7.

With `Nc1ccccc1NC(=O)c1cnc(N2CCC(CNC(/C=C/c3ccccc3)CO)CC2)nc1` (stereo not shown) [Compound 5], the melting point was 178 °C. Also, the IC50 in series [2] was 3160 nM. Also, the “Enzyme activity pIC50” value in series [4] was determined as 6.0.

`O=C(NO)c1cnc(N2CCOC(CNC(/C=C/c3ccccc3)CO)C2)nc1` (stereo not shown) [Compound 6] registered a melting point of 111 °C. In series [2], the IC50 is 79.4 nM. Also, the “Enzyme activity pIC50” value in series [4] was 8.1.

`Nc1ccccc1NC(=O)c1cnc(N2CCOC(CNC(/C=C/c3ccccc3)CO)C2)nc1` (stereo not shown) [Compound 7] gave a melting point of 95 °C. In addition, in series [2], the IC50 was 1260 nM. In addition, the “Enzyme activity pIC50” value in series [4] is given as 6.0.

With `CC(/C=C/c1ccccc1)N(CC1CCN(c2ncc(C(=O)NO)cn2)CC1)S(C)(=O)=O` (stereo not shown) [Compound 8], the melting point amounted to 110 °C. For the same compound, the IC50 in series [2] was 200 nM. Also, the “Enzyme activity pIC50” value in series [4] came to 9.5.

In series [5], `O=C(NO)c1cnc(N2CCN(S(=O)(=O)c3ccc4ccccc4c3)CC2)nc1` [Compound R306465, reference compound] returned an in vitro half-live of 8 min.

On to `CCCO` [propanol], for which the “% metabolism” value in series [1] (15 min incubation with active microsomes, compound 5 μM) is given as 25%.
